Residue numbers refer to the chain shown, from its start.
Columns and labels:
Test in all cases: DNA degradation, agarose gel
Format in all cases: biochemical
AsCap5 [1] = target: T1, AsCap5 (Asticcacaulis sp., UniProt Z9IC27YPF2, R310K); conditions: activator; 10 nM cGAMP; linearized plasmid 25 nM; 1 mM MgCl2, 0.5 mM MnCl2, pH 7.4, 37 °C, 15 min
T1 construct: full length; E. coli BL21(DE3), N-terminal 6xHis-SUMO tag cut with Ulp1; codon-optimized gene; homodimer (N-terminal HNH, C-terminal SAVED)
T1 sequence (Z9IC27YPF2 1-384 R310K): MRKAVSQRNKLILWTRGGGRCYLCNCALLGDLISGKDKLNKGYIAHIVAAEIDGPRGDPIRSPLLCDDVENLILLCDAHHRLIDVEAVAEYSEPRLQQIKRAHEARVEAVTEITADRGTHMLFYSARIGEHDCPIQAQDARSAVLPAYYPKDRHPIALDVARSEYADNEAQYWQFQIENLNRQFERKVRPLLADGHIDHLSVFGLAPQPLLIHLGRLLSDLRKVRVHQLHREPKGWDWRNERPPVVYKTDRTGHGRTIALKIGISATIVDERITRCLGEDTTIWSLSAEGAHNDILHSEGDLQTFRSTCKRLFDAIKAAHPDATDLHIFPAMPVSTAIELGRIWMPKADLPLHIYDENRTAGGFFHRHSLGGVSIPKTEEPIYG

AsCap5 [2] = target: T2, AsCap5 (Asticcacaulis sp., UniProt Z9IC27YPF2, K347R); conditions: activator; 10 nM cGAMP; linearized plasmid 25 nM; 1 mM MgCl2, 0.5 mM MnCl2, pH 7.4, 37 °C, 15 min
T2 construct: full length; E. coli BL21(DE3), N-terminal 6xHis-SUMO tag cut with Ulp1; codon-optimized gene; homodimer (N-terminal HNH, C-terminal SAVED)
T2 sequence (Z9IC27YPF2 1-384 K347R): T1 sequence (Z9IC27YPF2 1-384 R310K) with K310R, K347R

LlCap5 [3] = target: T3, LlCap5 (Lactococcus cremoris, UniProt A0A1E7G0A2); conditions: activator; 50 nM Cap5, linearized plasmid 25 nM; 1 mM MgCl2, 0.5 mM MnCl2, pH 7.4, 37 °C, 15 min; 10-fold dilution steps
T3 construct: gene AJ89_14580; full length; E. coli BL21(DE3), N-terminal 6xHis-SUMO tag cut with Ulp1; codon-optimized gene; homodimer (N-terminal HNH, C-terminal SAVED)

AsCap5 [4] = target: T4, AsCap5 (Asticcacaulis sp., UniProt Z9IC27YPF2); conditions: activator; 50 nM Cap5, linearized plasmid 25 nM; 1 mM MgCl2, 0.5 mM MnCl2, pH 7.4, 37 °C, 15 min; 10-fold dilution steps
T4 construct: full length; E. coli BL21(DE3), N-terminal 6xHis-SUMO tag cut with Ulp1; codon-optimized gene; homodimer (N-terminal HNH, C-terminal SAVED)
T4 sequence (Z9IC27YPF2 1-384): T1 sequence (Z9IC27YPF2 1-384 R310K) with K310R

AsCap5 [5] = target: T5, AsCap5 (Asticcacaulis sp., UniProt Z9IC27YPF2, R310Q); conditions: activator; 10 nM cGAMP; linearized plasmid 25 nM; 1 mM MgCl2, 0.5 mM MnCl2, pH 7.4, 37 °C, 15 min
T5 construct: full length; E. coli BL21(DE3), N-terminal 6xHis-SUMO tag cut with Ulp1; codon-optimized gene; homodimer (N-terminal HNH, C-terminal SAVED)
T5 sequence (Z9IC27YPF2 1-384 R310Q): T1 sequence (Z9IC27YPF2 1-384 R310K) with K310Q

AsCap5 [6] = target: T6, AsCap5 (Asticcacaulis sp., UniProt Z9IC27YPF2, D220A); conditions: activator; 10 nM cGAMP; linearized plasmid 25 nM; 1 mM MgCl2, 0.5 mM MnCl2, pH 7.4, 37 °C, 15 min
T6 construct: full length; E. coli BL21(DE3), N-terminal 6xHis-SUMO tag cut with Ulp1; codon-optimized gene; homodimer (N-terminal HNH, C-terminal SAVED)
T6 sequence (Z9IC27YPF2 1-384 D220A): T1 sequence (Z9IC27YPF2 1-384 R310K) with D220A, K310R

AsCap5 [7] = target: T7, AsCap5 (Asticcacaulis sp., UniProt Z9IC27YPF2, D349A); conditions: activator; 10 nM cGAMP; linearized plasmid 25 nM; 1 mM MgCl2, 0.5 mM MnCl2, pH 7.4, 37 °C, 15 min
T7 construct: full length; E. coli BL21(DE3), N-terminal 6xHis-SUMO tag cut with Ulp1; codon-optimized gene; homodimer (N-terminal HNH, C-terminal SAVED)
T7 sequence (Z9IC27YPF2 1-384 D349A): T1 sequence (Z9IC27YPF2 1-384 R310K) with K310R, D349A

AsCap5 [8] = target: T8, AsCap5 (Asticcacaulis sp., UniProt Z9IC27YPF2, K347Q); conditions: activator; 10 nM cGAMP; linearized plasmid 25 nM; 1 mM MgCl2, 0.5 mM MnCl2, pH 7.4, 37 °C, 15 min
T8 construct: full length; E. coli BL21(DE3), N-terminal 6xHis-SUMO tag cut with Ulp1; codon-optimized gene; homodimer (N-terminal HNH, C-terminal SAVED)
T8 sequence (Z9IC27YPF2 1-384 K347Q): T1 sequence (Z9IC27YPF2 1-384 R310K) with K310R, K347Q

AsCap5 [9] = target: T9, AsCap5 (Asticcacaulis sp., UniProt Z9IC27YPF2, K347A); conditions: activator; 10 nM cGAMP; linearized plasmid 25 nM; 1 mM MgCl2, 0.5 mM MnCl2, pH 7.4, 37 °C, 15 min
T9 construct: full length; E. coli BL21(DE3), N-terminal 6xHis-SUMO tag cut with Ulp1; codon-optimized gene; homodimer (N-terminal HNH, C-terminal SAVED)
T9 sequence (Z9IC27YPF2 1-384 K347A): T1 sequence (Z9IC27YPF2 1-384 R310K) with K310R, K347A

AsCap5 [10] = target: T4, AsCap5; conditions: activator; 50 nM Cap5, linearized plasmid 25 nM; 1 mM MgCl2, 0.5 mM MnCl2, pH 7.4, 37 °C, 15 min; 10-fold dilution steps; remark: listed apart in the source
LlCap5 [11] = target: T3, LlCap5; conditions: activator; 50 nM Cap5, linearized plasmid 25 nM; 1 mM MgCl2, 0.5 mM MnCl2, pH 7.4, 37 °C, 15 min; 10-fold dilution steps; remark: listed apart in the source

T3 sequence (A0A1E7G0A2 entry or part of it): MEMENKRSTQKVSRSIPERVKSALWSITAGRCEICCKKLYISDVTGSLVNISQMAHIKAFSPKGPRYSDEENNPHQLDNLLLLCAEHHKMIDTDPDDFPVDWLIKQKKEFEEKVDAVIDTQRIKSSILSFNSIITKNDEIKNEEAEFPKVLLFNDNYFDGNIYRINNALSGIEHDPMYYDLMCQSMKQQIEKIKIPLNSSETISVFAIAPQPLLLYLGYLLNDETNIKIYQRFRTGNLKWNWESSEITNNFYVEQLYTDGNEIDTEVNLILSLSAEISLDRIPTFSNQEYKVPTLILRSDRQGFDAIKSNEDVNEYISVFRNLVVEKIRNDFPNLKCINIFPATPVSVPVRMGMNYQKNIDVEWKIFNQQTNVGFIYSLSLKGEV

Row | fold less active than wild type (AsCap5 [2]) | concentration giving significant DNA degradation (LlCap5 [3]) | concentration giving significant DNA degradation (AsCap5 [4]) | estimated activity (% of wild type) (AsCap5 [6]) | % reduction of activity (AsCap5 [9]) | concentration giving same degradation as 10 nM 3′,2′-cGAMP (AsCap5 [10]) | concentration giving same degradation as 10 nM 3′,2′-cGAMP (LlCap5 [11]) | Compound | estimated activity (AsCap5 [1]) | estimated activity (AsCap5 [5]) | estimated activity (AsCap5 [7]) | estimated activity (AsCap5 [8])
1 | ~ 10 fold | ~ 10 nM | ~ 10 nM | ~ 15% | ~ 98% |  |  | Nc1nc2c(ncn2[C@@H]2O[C@@H]3COP(=O)(O)O[C@@H]4[C@H](O)[C@@H](COP(=O)(O)O[C@H]3[C@H]2O)O[C@H]4n2cnc3c(N)ncnc32)c(=O)[nH]1 [3′,2′-cGAMP] | R310K and R310Q mutants, and both also showed significantly reduced activities | R310K and R310Q mutants, and both also showed significantly reduced activities | D349A mutation showed a similar degree of reduced activity as D220A mutation | it was even less active than K347A mutant
2 |  |  |  |  |  | ~ 100 μM | ~ 100 μM | Nc1nc2c(ncn2[C@@H]2O[C@@H]3COP(=O)(O)O[C@H]4[C@@H](O)[C@H](n5cnc6c(N)ncnc65)O[C@@H]4COP(=O)(O)O[C@H]3[C@H]2O)c(=O)[nH]1 [3′,3′-cGAMP] |  |  |  | 
